Measurements as given in ChEMBL document CHEMBL5331122, “Structure-Activity Relationship Study of Antimicrobial Peptide PE2 Delivered Novel Linear Derivatives with Potential of Eradicating Biofilms and Low Incidence of Drug Resistance” (J Med Chem, 2023).
Active and inactive are the calls of the source.

Columns and labels:
Escherichia coli [1] = experiment: Antibacterial activity against Escherichia coli ATCC 25922 assessed as fold increase in MIC in presence of ZnCl2; type: functional
Cell membrane [2] = experiment: Induction of cell membrane damage in Staphylococcus aureus ATCC 25923 at 2 times MIC measured at 30 mins by propidium iodide staining based flow cytometer assay; type: subcellular
Staphylococcus aureus [3] = experiment: Antibacterial activity against Staphylococcus aureus ATCC 25923 assessed as fold increase in MIC in presence of FeCl3; type: functional
Staphylococcus aureus [4] = experiment: Antibiofilm activity against Staphylococcus aureus ATCC 25923 assessed as biofilm eradication at 4 times MIC incubated for 24 hrs; type: functional, organism-based
Escherichia coli [5] = experiment: Antimicrobial activity against Escherichia coli ATCC 25922 assessed as reduction in survival bacterial growth in presence of trypsin measured after 6 hrs; type: functional, organism-based
Enterococcus faecalis = experiment: Antibacterial activity against Enterococcus faecalis ATCC 29212 assessed as bacterial growth inhibition incubated for 18 hrs by broth microdilution method; type: functional
Escherichia coli [6] = experiment: Inhibition of biofilm formation in Escherichia coli ATCC 25922 assessed as inhibition of biofilm formation at 1/4 times MIC incubated for 24 hrs by crystal violet staining based analysis; type: functional, organism-based
Staphylococcus aureus [7] = experiment: Bactericidal activity against Staphylococcus aureus ATCC 25923 assessed as inhibition of bacterial growth at 0.5 to 2 times MIC by time-kill assay; type: functional, organism-based; settings: time <= 360.0 min, TDE = time-dependent effect
Staphylococcus aureus [8] = experiment: Antibacterial activity against Staphylococcus aureus ATCC 25923 assessed as fold increase in MIC in presence of NaCl; type: functional
Escherichia coli [9] = experiment: Bactericidal activity against Escherichia coli ATCC 25922 assessed as inhibition of bacterial growth at 0.5 to 2 times MIC by time-kill assay; type: functional, organism-based; settings: time <= 360.0 min, TDE = time-dependent effect
Escherichia coli [10] = experiment: Inhibition of biofilm formation in Escherichia coli ATCC 25922 assessed as inhibition of biofilm formation incubated for 24 hrs by crystal violet staining based analysis; type: functional, organism-based
Cell membrane [11] = experiment: Induction of outer membrane permeabilization in Escherichia coli ATCC 25922 assessed as increase in fluorescence intensity at 1 times MIC measured for 12 hrs by NPN uptake assay; type: subcellular
Staphylococcus aureus [12] = experiment: Antibiofilm activity against Staphylococcus aureus ATCC 25923 assessed as biofilm eradication at 1 times MIC incubated for 24 hrs; type: functional, organism-based
Staphylococcus aureus [13] = experiment: Bactericidal activity against Staphylococcus aureus ATCC 25923 assessed as inhibition of bacterial growth at 1 times MIC measured upto 360 mins by time-kill assay; type: functional, organism-based
Staphylococcus aureus [14] = experiment: Induction of drug resistance against Staphylococcus aureus ATCC 25923 measured upto 15 passages by sequential passaging method; type: functional
Escherichia coli [15] = experiment: Antibiofilm activity against Escherichia coli ATCC 25922 assessed as biofilm eradication at 4 times MIC incubated for 24 hrs; type: functional, organism-based
Cell membrane [16] = experiment: Induction of inner membrane permeabilization in Escherichia coli ML-35 ATCC 43837 assessed as increase in fluorescence intensity at 1 to 4 times MIC incubated upto 150 mins by ONPG staining based analysis; type: subcellular
Pseudomonas aeruginosa = experiment: Antibacterial activity against Pseudomonas aeruginosa ATCC 27853 assessed as bacterial growth inhibition incubated for 18 hrs by broth microdilution method; type: functional
Escherichia coli [17] = experiment: Bactericidal activity against Escherichia coli ATCC 25922 assessed as inhibition of bacterial growth at 1/2 times MIC measured at 180 mins by time-kill assay; type: functional, organism-based
Staphylococcus aureus [18] = experiment: Induction of membrane morphological changes in Staphylococcus aureus ATCC 25923 assessed as appearance of adherent bacterial cells at 4 times MIC measured at 0.5 to 2 hrs by SEM analysis; type: functional, organism-based; settings: time 0.5-2 hrs
Escherichia coli [19] = experiment: Antibiofilm activity against Escherichia coli ATCC 25922 assessed as biofilm eradication at 1 times MIC incubated for 24 hrs; type: functional, organism-based
Escherichia coli [20] = experiment: Antibacterial activity against Escherichia coli ATCC 25922 assessed as fold increase in MIC in presence of KCl; type: functional
Staphylococcus aureus [21] = experiment: Induction of membrane morphological changes in Staphylococcus aureus ATCC 25923 at 4 times MIC measured at 0.5 to 2 hrs by SEM analysis; type: functional, organism-based; settings: time 0.5-2 hrs
Escherichia coli [22] = experiment: Bactericidal activity against Escherichia coli ATCC 25922 assessed as inhibition of bacterial growth incubated upto 360 mins by time-kill assay; type: functional, organism-based
Bacillus subtilis = experiment: Antibacterial activity against Bacillus subtilis ATCC 23857 assessed as bacterial growth inhibition incubated for 18 hrs by broth microdilution method; type: functional
Staphylococcus aureus [23] = experiment: Antibacterial activity against Staphylococcus aureus ATCC 25923 in presence of 10% mouse serum measured for 6 hrs; type: functional, organism-based
Staphylococcus aureus [24] = experiment: Inhibition of biofilm formation in Staphylococcus aureus ATCC 25923 assessed as inhibition of biofilm formation at 2 times MIC incubated for 24 hrs by crystal violet staining based analysis; type: functional, organism-based
Staphylococcus aureus [25] = experiment: Antibacterial activity against Staphylococcus aureus ATCC 25923 assessed as bacterial growth inhibition incubated for 18 hrs by broth microdilution method; type: functional
Escherichia coli [26] = experiment: Antimicrobial activity against Escherichia coli ATCC 25922 assessed as reduction in microbial growth measured for 18 hrs in presence of 512 microg/ml LPS; type: functional, organism-based
Escherichia coli [27] = experiment: Bactericidal activity against Escherichia coli ATCC 25922 assessed as inhibition of bacterial growth at 2 times MIC measured upto 360 mins by time-kill assay; type: functional, organism-based
Staphylococcus aureus [28] = experiment: Antibiofilm activity against Staphylococcus aureus ATCC 25923 assessed as biofilm eradication at 8 times MIC incubated for 24 hrs; type: functional, organism-based
Staphylococcus aureus [29] = experiment: Induction of membrane morphological changes in Staphylococcus aureus ATCC 25923 assessed as appearance of blistered bacterial cells at 4 times MIC measured at 0.5 to 2 hrs by SEM analysis; type: functional, organism-based; settings: time 0.5-2 hrs
Cell membrane [30] = experiment: Induction of cell membrane damage in Escherichia coli ATCC 25922 at 2 times MIC after 0.5 to 2 hrs by propidium iodide staining based flow cytometer assay; type: subcellular; settings: time 0.5-2 hrs
Escherichia coli [31] = experiment: Antibacterial activity against Escherichia coli ATCC 25922 in presence of 10% mouse serum measured for 6 hrs; type: functional, organism-based
Staphylococcus aureus [32] = experiment: Antibiofilm activity against Staphylococcus aureus ATCC 25923 assessed as biofilm eradication at 2 times MIC incubated for 24 hrs; type: functional, organism-based
Staphylococcus aureus [33] = experiment: Inhibition of biofilm formation in Staphylococcus aureus ATCC 25923 assessed as inhibition of biofilm formation at 1/2 times MIC incubated for 24 hrs by crystal violet staining based analysis; type: functional, organism-based
Staphylococcus aureus [34] = experiment: Antibacterial activity against Staphylococcus aureus ATCC 25923 assessed as fold increase in MIC in presence of ZnCl2; type: functional
Staphylococcus aureus [35] = experiment: Inhibition of biofilm formation in Staphylococcus aureus ATCC 25923 assessed as inhibition of biofilm formation at 1/4 times MIC incubated for 24 hrs by crystal violet staining based analysis; type: functional, organism-based
Escherichia coli [36] = experiment: Induction of membrane morphological changes in Escherichia coli ATCC 25922 at 4 times MIC measured at 0.5 to 2 hrs by SEM analysis; type: functional, organism-based; settings: time 0.5-2 hrs
Cell membrane [37] = experiment: Induction of outer membrane permeabilization in Escherichia coli ATCC 25922 assessed as increase in fluorescence intensity at 2 times MIC measured for 12 hrs by NPN uptake assay; type: subcellular
Staphylococcus aureus [38] = experiment: Inhibition of biofilm formation in Staphylococcus aureus ATCC 25923 assessed as inhibition of biofilm formation at 1 times MIC incubated for 24 hrs by crystal violet staining based analysis; type: functional, organism-based

CCCCCCC(=O)N[C@@H](CCN)C(=O)N[C@H](C(=O)N[C@@H](CCN)C(=O)N[C@H](Cc1ccccc1)C(=O)N[C@@H](CC(C)C)C(=O)N[C@@H](CCN)C(=O)N[C@@H](C(=O)N[C@@H](CC(C)C)C(=O)N[C@@H](Cc1ccc(O)cc1)C(N)=O)C(C)C)[C@@H](C)CC
64 µg/mL: MIC (Enterococcus faecalis)
inactive: Activity (Cell membrane [2]) | Activity (Staphylococcus aureus [12]) | Activity (Staphylococcus aureus [13]) | Activity (Escherichia coli [19]) | Activity (Escherichia coli [26]) | inhibition (Staphylococcus aureus [38])
2 µg/mL: MIC (Bacillus subtilis)
4 µg/mL: MIC (Pseudomonas aeruginosa)
<=2: fold change (FC) (Escherichia coli [1]) | fold change (FC) (Staphylococcus aureus [3]) | fold change (FC) (Staphylococcus aureus [8]) | fold change (FC) (Escherichia coli [20]) | fold change (FC) (Staphylococcus aureus [34])
8 µg/mL: MIC (Staphylococcus aureus [25])
active: Activity (Staphylococcus aureus [4]) | Activity (Escherichia coli [5]) | inhibition (Escherichia coli [6]) | Activity (Staphylococcus aureus [7]) Tde | Activity (Escherichia coli [9]) Tde | inhibition (Escherichia coli [10]) Dose-Dependent Effect | Activity (Cell membrane [11]) | Activity (Staphylococcus aureus [14]) | Activity (Escherichia coli [15]) | Activity (Cell membrane [16]) | Activity (Escherichia coli [17]) | Activity (Staphylococcus aureus [18]) | Activity (Staphylococcus aureus [21]) | Activity (Escherichia coli [22]) Dose-Dependent Effect | Activity (Staphylococcus aureus [23]) | inhibition (Staphylococcus aureus [24]) | Activity (Escherichia coli [27]) | Activity (Staphylococcus aureus [28]) | Activity (Staphylococcus aureus [29]) | Activity (Cell membrane [30]) | Activity (Escherichia coli [31]) | Activity (Staphylococcus aureus [32]) | inhibition (Staphylococcus aureus [33]) | inhibition (Staphylococcus aureus [35]) | Activity (Escherichia coli [36]) | Activity (Cell membrane [37])

CC[C@H](C)[C@@H]1NC(=O)[C@H](CCN)NC(=O)C[C@@H](C(C)C)OC(=O)[C@H]([C@@H](C)O)NC(=O)[C@H](CC(C)C)NC(=O)[C@@H](C(C)C)NC(=O)[C@H](CCN)NC(=O)[C@H](CC(C)C)NC(=O)[C@@H](Cc2ccccc2)NC(=O)[C@H](CCN)NC1=O
8 µg/mL: MIC (Pseudomonas aeruginosa) | MIC (Staphylococcus aureus [25])
<=2: fold change (FC) (Escherichia coli [1]) | fold change (FC) (Staphylococcus aureus [3]) | fold change (FC) (Staphylococcus aureus [8]) | fold change (FC) (Escherichia coli [20]) | fold change (FC) (Staphylococcus aureus [34])
inactive: Activity (Cell membrane [2]) | inhibition (Escherichia coli [6]) | Activity (Staphylococcus aureus [12]) | Activity (Staphylococcus aureus [13]) | Activity (Escherichia coli [19]) | Activity (Escherichia coli [26])
16 µg/mL: MIC (Enterococcus faecalis)
active: Activity (Staphylococcus aureus [4]) | Activity (Escherichia coli [5]) | Activity (Staphylococcus aureus [7]) Tde | Activity (Escherichia coli [9]) Tde | inhibition (Escherichia coli [10]) Dose-Dependent Effect | Activity (Cell membrane [11]) | Activity (Staphylococcus aureus [14]) | Activity (Escherichia coli [15]) | Activity (Cell membrane [16]) | Activity (Escherichia coli [17]) | Activity (Staphylococcus aureus [18]) | Activity (Staphylococcus aureus [21]) | Activity (Escherichia coli [22]) Dose-Dependent Effect | Activity (Staphylococcus aureus [23]) | inhibition (Staphylococcus aureus [24]) | Activity (Escherichia coli [27]) | Activity (Staphylococcus aureus [28]) | Activity (Staphylococcus aureus [29]) | Activity (Cell membrane [30]) | Activity (Escherichia coli [31]) | Activity (Staphylococcus aureus [32]) | inhibition (Staphylococcus aureus [33]) | inhibition (Staphylococcus aureus [35]) | Activity (Escherichia coli [36]) | Activity (Cell membrane [37]) | inhibition (Staphylococcus aureus [38])
4 µg/mL: MIC (Bacillus subtilis)

CCCCCCCC(=O)N[C@@H](CCN)C(=O)N[C@H](C(=O)N[C@@H](CCN)C(=O)N[C@H](Cc1ccccc1)C(=O)N[C@@H](CC(C)C)C(=O)N[C@@H](CCN)C(=O)N[C@@H](C(=O)N[C@@H](CC(C)C)C(=O)N[C@@H](Cc1ccc(O)cc1)C(N)=O)C(C)C)[C@@H](C)CC
8 µg/mL: MIC (Staphylococcus aureus [25])
active: Activity (Staphylococcus aureus [4]) | Activity (Escherichia coli [5]) | Activity (Staphylococcus aureus [7]) Tde | Activity (Escherichia coli [9]) Tde | inhibition (Escherichia coli [10]) Dose-Dependent Effect | Activity (Staphylococcus aureus [14]) | Activity (Escherichia coli [15]) | Activity (Cell membrane [16]) | Activity (Escherichia coli [17]) | Activity (Staphylococcus aureus [18]) | Activity (Escherichia coli [19]) | Activity (Staphylococcus aureus [21]) | Activity (Escherichia coli [22]) Dose-Dependent Effect | Activity (Staphylococcus aureus [23]) | inhibition (Staphylococcus aureus [24]) | Activity (Escherichia coli [27]) | Activity (Staphylococcus aureus [28]) | Activity (Staphylococcus aureus [29]) | Activity (Cell membrane [30]) | Activity (Escherichia coli [31]) | Activity (Staphylococcus aureus [32]) | inhibition (Staphylococcus aureus [33]) | inhibition (Staphylococcus aureus [35]) | Activity (Escherichia coli [36]) | inhibition (Staphylococcus aureus [38])
16 µg/mL: MIC (Enterococcus faecalis)
4 µg/mL: MIC (Pseudomonas aeruginosa)
2 µg/mL: MIC (Bacillus subtilis)
<=2: fold change (FC) (Escherichia coli [1]) | fold change (FC) (Staphylococcus aureus [3]) | fold change (FC) (Staphylococcus aureus [8]) | fold change (FC) (Escherichia coli [20]) | fold change (FC) (Staphylococcus aureus [34])
inactive: Activity (Cell membrane [2]) | inhibition (Escherichia coli [6]) | Activity (Cell membrane [11]) | Activity (Staphylococcus aureus [12]) | Activity (Staphylococcus aureus [13]) | Activity (Escherichia coli [26]) | Activity (Cell membrane [37])
